Experimental findings from patent US20230167088A1, “1-PYRAZINYLPYRAZOLYL-3-OXYALKYL ACIDS AND THEIR DERIVATIVES, AND THEIR USE FOR CONTROL OF UNDESIRED PLANT GROWTH” (BAYER AKTIENGESELLSCHAFT, priority 2020, published 2023) are described below.

For experiment [1], the system named is POAAN. The experiment can be described thus: Herbicidal post-emergence action 1b (twin sowing, 1280 g/ha). It counts as in vivo, Poa annua. The following applies: dosage 1280 g/ha, visual rating about 3 weeks after treatment. On the procedure: (§1) [table] b) Seeds of mono- and dicotyledonous weed plants are placed in plastic pots in sandy loam soil (twin sowing with one species each of mono- or dicotyledonous weed plants per pot), covered with soil and cultivated in a greenhouse under controlled growth conditions. 2 to 3 weeks after sowing, the test plants are treated at the one-leaf stage. The compounds of the invention, formulated in the form of wettable powders (WP) or as emulsion concentrates (EC), are applied to the green parts of the plants as aqueous suspension or emulsion with addition of 0.5% additive at a water application rate equivalent to 600 litres per hectare. After the test plants have been kept in the greenhouse under optimum growth conditions for about 3 weeks, the activity of the preparations is rated visually in comparison to untreated controls. For example, 100% activity=the plants have died, 0% activity=like control plants. Tables A16 to A21 below show the effects of selected compounds of the general formula (I) according to Tables 1 and 2 on various harmful plants and at an application rate corresponding to 1280 g/ha, which were obtained by the experimental procedure mentioned above.

Experiment [2] relates to MATIN. The description is as above. In kind it is in vivo, Matricaria inodora. As to conditions: dosage 1280 g/ha, visual rating about 3 weeks after treatment. On the procedure:
as §1

Experiment [3] relates to POAAN. The experiment in a line: Herbicidal pre-emergence action 2b (doubly sown, 1280 g/ha). In kind it is in vivo, Poa annua. As to conditions: doubly sown pots, dosage 1280 g/ha, visual scoring after about 3 weeks. The text has this: (§2) [table] b) Seeds of mono- and dicotyledonous weed plants are placed in plastic pots in sandy loam soil (doubly sown with one species each of mono- or dicotyledonous weed plants per pot) and covered with soil. The compounds of the invention, formulated in the form of wettable powders (WP) or as emulsion concentrates (EC), are then applied onto the surface of the covering soil as aqueous suspension or emulsion with addition of 0.5% additive at a water application rate equivalent to 600 litres per hectare. After the treatment, the pots are placed in a greenhouse and kept under good growth conditions for the trial plants. After about 3 weeks, the effect of the preparations is scored visually in comparison with untreated controls as percentages. For example, 100% activity=the plants have died, 0% activity=like control plants. Tables B16 to B21 below show the effects of selected compounds of the general formula (I) according to Tables 1 and 2 on various harmful plants and at an application rate corresponding to 1280 g/ha, which were obtained by the experimental procedure mentioned above.

The next experiment has as its system DIGSA. Described as above. It counts as in vivo, Digitaria sanguinalis. As to conditions: doubly sown pots, dosage 1280 g/ha, visual scoring after about 3 weeks.
From the text: as §2

The next experiment concerns ECHCG. The description is as above. In kind it is in vivo, Echinochloa crus-galli. The following applies: doubly sown pots, dosage 1280 g/ha, visual scoring after about 3 weeks.
From the text: as §2

The test system of experiment [4] is AMARE. The description is as above. In kind it is in vivo, Amaranthus retroflexus. The following applies: doubly sown pots, dosage 1280 g/ha, visual scoring after about 3 weeks.
From the text: as §2

In experiment [5] the test system is MATIN. The description is as above. It counts as in vivo, Matricaria inodora. The following applies: doubly sown pots, dosage 1280 g/ha, visual scoring after about 3 weeks.
From the text: as §2

Experiment [6] deals with STEME. The description is as above. In kind it is in vivo, Stellaria media. The following applies: doubly sown pots, dosage 1280 g/ha, visual scoring after about 3 weeks.
From the text: as §2

Experiment [7] deals with ALOMY. The experiment in a line: Herbicidal post-emergence action 1a (greenhouse pots, visual rating). It counts as in vivo, Alopecurus myosuroides. As to conditions: rated visually about 3 weeks after treatment, 100% = plants have died, 0% = like control plants. On the procedure:
(§3) [table] a) Seeds of monocotyledonous and dicotyledonous weeds and crop plants are placed in sandy loam in plastic or organic plant pots, covered with soil and cultivated in a greenhouse under controlled growth conditions. 2 to 3 weeks after sowing, the test plants are treated at the one-leaf stage. The compounds of the invention, formulated in the form of wettable powders (WP) or as emulsion concentrates (EC), are then sprayed onto the green parts of the plants as aqueous suspension or emulsion with addition of 0.5% additive at a water application rate of 600 1/ha (converted). After the test plants have been kept in the greenhouse under optimum growth conditions for about 3 weeks, the activity of the preparations is rated visually in comparison to untreated controls. For example, 100% activity=the plants have died, 0% activity=like control plants. Tables A1 to A15 below show the effects of selected compounds of the general formula (I) according to Tables 1 and 2 on various harmful plants and an application rate corresponding to 320 g/ha and/or 80 g/ha, which were obtained by the experimental procedure mentioned above.

Experiment [8] relates to AVEFA. Described as above. In kind it is in vivo, Avena fatua. The following applies: Dosage 320 g/ha; rated visually about 3 weeks after treatment; 100% = plants have died, 0% = like control plants. The procedure: as §3
Experiment [9] relates to LOLRI. Described as above. In kind it is in vivo, Lolium rigidum. The following applies: Dosage 320 g/ha; rated visually about 3 weeks after treatment; 100% = plants have died, 0% = like control plants. The procedure:
as §3

Experiment [10] relates to AMARE. The experiment is described as above. It counts as in vivo, Amaranthus retroflexus. As to conditions: dosage 320 g/ha, visual rating about 3 weeks after treatment. On the procedure:
as §3

For experiment [11], the system named is POLCO. The experiment is described as above. It counts as in vivo, Polygonum convolvulus. As to conditions: dosage 320 g/ha, visual rating about 3 weeks after treatment. The procedure: as §3
Experiment [12] concerns VERPE. Described as above. It counts as in vivo, Veronica persica. As to conditions: dosage 320 g/ha, visual rating about 3 weeks after treatment. On the procedure: as §3
Experiment [13] deals with ALOMY. The experiment can be described thus: Herbicidal pre-emergence action 2a (greenhouse pots, visual scoring). As to conditions: dosage 320 g/ha, visual scoring after about 3 weeks. In kind it is in vivo, Alopecurus myosuroides. The text has this:
(§4) [table] a) Seeds of monocotyledonous and dicotyledonous weed plants and crop plants are placed in plastic or organic plant pots and covered with soil. The compounds of the invention, formulated in the form of wettable powders (WP) or as emulsion concentrates (EC), are then applied onto the surface of the covering soil as aqueous suspension or emulsion with addition of 0.5% additive at a water application rate of 600 1/ha (converted). After the treatment, the pots are placed in a greenhouse and kept under good growth conditions for the trial plants. After about 3 weeks, the effect of the preparations is scored visually in comparison with untreated controls as percentages. For example, 100% activity=the plants have died, 0% activity=like control plants. Tables B1 to B15 below show the effects of selected compounds of the general formula (I) according to Tables 1 and 2 on various harmful plants and an application rate corresponding to 320 g/ha and/or 80 g/ha, which were obtained by the experimental procedure mentioned above.

For experiment [14], the system named is AVEFA. The description is as above. It counts as in vivo, Avena fatua. The following applies: dosage 320 g/ha, visual scoring after about 3 weeks.
From the text: as §4

In experiment [15] the test system is LOLRI. The experiment is described as above. In kind it is in vivo, Lolium rigidum. The following applies: dosage 320 g/ha, visual scoring after about 3 weeks vs untreated controls.
From the text: as §4

The next experiment relates to SETVI. The description is as above. In kind it is in vivo, Setaria viridis. The following applies: dosage 320 g/ha, visual scoring after about 3 weeks vs untreated controls.
From the text: as §4

In experiment [16] the test system is POLCO. Described as above. It counts as in vivo, Polygonum convolvulus. As to conditions: dosage 320 g/ha, visual scoring after about 3 weeks vs untreated controls.
From the text: as §4

The test system of experiment [17] is VERPE. The description is as above. It counts as in vivo, Veronica persica. As to conditions: dosage 320 g/ha, visual scoring after about 3 weeks vs untreated controls.
From the text: as §4

In experiment [18] the test system is STEME. The experiment can be described thus: Herbicidal post-emergence action 1b (twin sowing, 1280 g/ha). As to conditions: dosage 1280 g/ha, visual rating about 3 weeks after treatment. In kind it is in vivo, Stellaria media. On the procedure:
as §1

Regarding `O=C(O)COc1nn(-c2cnccn2)c(-c2ccc(F)c(F)c2)c1Br` [Example I-41], in the experiment on POAAN [1], the “Post-emergence action at 1280 g/ha against POAAN in %” value is 100%. Besides, the “Post-emergence action at 1280 g/ha against MATIN in %” value in the experiment with MATIN [2] was 90%. The “Pre-emergence action at 1280 g/ha against POAAN in %” value with POAAN [3] is 100%. In the experiment on DIGSA, the “Pre-emergence action at 1280 g/ha against DIGSA in %” value came to 100%. Further, the “Pre-emergence action at 1280 g/ha against ECHCG in %” value in the experiment with ECHCG turned out to be 100%. Further, the “Pre-emergence action at 1280 g/ha against AMARE in %” value with AMARE [4] was 100%. In addition, the “Pre-emergence action at 1280 g/ha against MATIN in %” value in the experiment on MATIN [5] is 100%. Besides, the “Pre-emergence action at 1280 g/ha against STEME in %” value with STEME [6] came out at 100%.
Regarding `CCOC(=O)[C@@H](C)Oc1nn(-c2cnccn2)c(-c2ccc(F)nc2)c1C1CC1` [Example I-88], the figures for the “Post-emergence action against ALOMY in %” value in the experiment with ALOMY [7] (Dosage 80 g/ha) and with ALOMY [7] (Dosage 320 g/ha) were 80% and 100%, respectively. The “Post-emergence action against AVEFA in %” value with AVEFA [8] is listed as 100%. In addition, in the experiment with LOLRI [9], the “Post-emergence action against LOLRI in %” value is listed as 100%. The “Post-emergence action against AMARE in %” value in the experiment with AMARE [10] amounted to 80%. The “Post-emergence action against POLCO in %” value in the experiment with POLCO [11] stood at 80%. In the experiment with VERPE [12], the “Post-emergence action against VERPE in %” value came out at 80%. Further, the “Pre-emergence action against ALOMY in %” value in the experiment with ALOMY [13] was found to be 100%. Besides, in the experiment on AVEFA [14], the “Pre-emergence action against AVEFA in %” value came to 90%. Further, the “Pre-emergence action against LOLRI in %” value in the experiment on LOLRI [15] turned out to be 100%. The “Pre-emergence action against SETVI in %” value in the experiment with SETVI was 80%. Further, in the experiment on POLCO [16], the “Pre-emergence action against POLCO in %” value is listed as 80%. Also, in the experiment on VERPE [17], the “Pre-emergence action against VERPE in %” value amounted to 90%.
On to `COC(=O)[C@@H](C)Oc1nn(-c2cnccn2)c(-c2cnc(F)c(F)c2)c1Br` [Example I-43], for which, in the experiment on POAAN [1], the “Post-emergence action at 1280 g/ha against POAAN in %” value is 100%. In the experiment on MATIN [2], the “Post-emergence action at 1280 g/ha against MATIN in %” value was 100%. Moreover, the “Post-emergence action at 1280 g/ha against STEME in %” value with STEME [18] was 90%. The “Pre-emergence action at 1280 g/ha against POAAN in %” value with POAAN [3] is 100%. The “Pre-emergence action at 1280 g/ha against DIGSA in %” value in the experiment with DIGSA turned out to be 100%. The “Pre-emergence action at 1280 g/ha against AMARE in %” value in the experiment on AMARE [4] stood at 100%. In the experiment with MATIN [5], the “Pre-emergence action at 1280 g/ha against MATIN in %” value is 90%. For the same molecule, the “Pre-emergence action at 1280 g/ha against STEME in %” value in the experiment with STEME [6] was 100%.
As to `CCOC(=O)COc1nn(-c2cnccn2)c(-c2ccc(F)nc2)c1[N+](=O)[O-]` [Example I-50], the “Post-emergence action at 1280 g/ha against POAAN in %” value in the experiment on POAAN [1] amounted to 90%. In addition, the “Post-emergence action at 1280 g/ha against MATIN in %” value in the experiment on MATIN [2] is given as 90%. Further, the “Post-emergence action at 1280 g/ha against STEME in %” value with STEME [18] is 90%. Further, the “Pre-emergence action at 1280 g/ha against POAAN in %” value with POAAN [3] worked out at 100%. In addition, the “Pre-emergence action at 1280 g/ha against DIGSA in %” value in the experiment with DIGSA amounted to 100%. Also, the “Pre-emergence action at 1280 g/ha against AMARE in %” value in the experiment on AMARE [4] was determined as 100%. Further, the “Pre-emergence action at 1280 g/ha against MATIN in %” value in the experiment on MATIN [5] amounted to 90%. Also, the “Pre-emergence action at 1280 g/ha against STEME in %” value in the experiment with STEME [6] is recorded as 90%.
